Structures are written as SMILES.

The nature of the series: Pharmacokinetics of GHB in plasma after oral gavage of GHB delivering compounds; relative oral bioavailability vs sodium oxybate. The conditions noted are these: vehicle water.
Setting [1] is: dose equivalent to 80 mg/kg NaGHB.
The mark [2] stands for this setting: molar equivalent of 100 mg/kg NaGHB.

As to `CCOC(=O)OCCCC(=O)O` [O-(ethoxycarbonyl)-GHB, O-(Ethoxycarbonyl)-GHB], under setting [1], the “% AUC0-4 hr vs study comparator (sodium oxybate)” value is recorded as 54% and the “% Cmax vs study comparator (sodium oxybate)” value worked out at 51%.
As for `O=C1CCCO1` [GBL], under setting [2], the “% AUC0-4 hr vs study comparator (sodium oxybate)” value amounted to 27% and the “% Cmax vs study comparator (sodium oxybate)” value is 70%.
